# Data from PMC10695737, “Crystal Modifications of a Cyclic Guanosine Phosphorothioate Analogue, a Drug Candidate for Retinal Neurodegenerations” (ChemistryOpen, 2023).
# What was measured:
# Format in all cases: physicochemical
# [1] = Phase solubility in deionized water (HPLC); details: for pH of mixture: aqueous solubility measurements; for solubility at 24 h: deionized water, thermodynamic from solid
# Protocol: (§1) The pH‐solubility profile of cGMPSA salts and free acid was determined by phase solubility techniques.[18] Briefly, saturated mixtures of the compound were prepared by adding excess amount to 4 mL vials containing 2 mL deionized water, an acidic buffer (0.1 M HCl(aq), pH 1), or a basic buffer (0.1 M NaOH(aq), pH 13). They were allowed to equilibrate for 24 h using mild agitation before recording the pH. The clear solution was separated from the solids by filtration with a Cytiva Whatman™ Mini‐Uniprep™ polypropylene 0.45 μm filter device and diluted to an appropriate analytical concentration where needed. The sample was then analyzed by HPLC, and the solubility determined by integrating the area of the peak of interest against a standard curve. The solids were also analyzed by XRPD to record the crystal modification obtained.
# [2] = Dynamic vapor sorption (DVS), water sorption as Δm; details: for Water sorption Δm: 25 °C; for Observed Δm: DVS step compared to theoretical hydrate mass change; for Stable %RH range: RH range of the corresponding hydrate step on DVS; for change in mass (Δm): at 95 % relative humidity (maximum RH), stated in text
# Protocol: The samples were analyzed at 25 °C with a Surface Measurements Systems DVS Advantage. A sample was weighted into a weighing pan and its mass was monitored while it was exposed to different relative humidities (%RH=%P/P0). Before the analysis, the weighing pan was subject to an antistatic program.
# The analysis program consisted of two cycles. In each cycle, the relative humidity was increased stepwise up to 95 % RH (starting from 0 % RH, 9 steps with 10 % and one step with 5 %) and then decreased stepwise to 0 % RH again. In both sorption/desorption cycles, at each step, the sample was kept at the set relative humidity until dm/dt <0.002 %, over 15 min.
# [3] = pH-dependent solubility in basic buffer NaOH(aq); details: 0.1 M NaOH(aq) basic buffer, aqueous buffer, thermodynamic from solid, pH 13, read-out: Solubility in 0.1M NaOH(aq), mg / mL (SD)
# Protocol: as §1
# [4] = Polymorph screen, approximate solubility in solvents (UHPLC); details: thermodynamic from solid
# Protocol: A polymorph screen was done for cGMPSA‐TEA with a similar approach. An excess of the compound was slurried in a range of solvents, typically 20–40 mg in 1 mL. For screens where enough solid material was obtained, it was analyzed by XRPD to record the crystal modification.
# [5] = pH-dependent solubility in acidic buffer 0.1 M HCl(aq); details: 0.1 M HCl(aq) acidic buffer, simulated gastric fluid, thermodynamic from solid, pH 1, read-out: Solubility in 0.1M HCl(aq), µg / mL (SD)
# Protocol: as §1
# [6] = Thermal analysis (DSC/TGA), decomposition
# Protocol: Differential scanning calorimetry (DSC) analyses were carried out on a Mettler DSC822e, equipped with a Thermo Haake EK45/MT cooler. The samples were weighed into a 40 μL Al‐cup, which were then closed with a pierced lid. The sample was scanned from 25 to 300 °C, with a scan rate of 10 °C/min.
# Thermogravimetric analysis (TGA) was performed on a Mettler TGA/SDTA 851e, equipped with a Haake C50P cooler. Alternatively, thermogravimetric and DSC analyses were carried out simultaneously in a Mettler Toledo TGA/DSC 3+. The samples were weighed into a 100 μL Al‐cup and this was flushed with dry nitrogen gas during the analysis. The sample was scanned from 25 to 300 °C, with a scan rate of 10 °C/min.
# [7] = 0 % RH, after final desorption cycle 2 (D2)
# [8] = 30 % RH, desorption cycle 2 (D2)
# [9] = 60 % RH, desorption cycle 2 (D2)
# [10] = 95 % RH, desorption cycle 2 (D2)
structure (smiles),measurement,setting,value
"NC(CO)(CO)CO.O=c1c2nc(Br)n([C@@H]3O[C@@H]4CO[P@@](O)(=S)O[C@H]4[C@H]3O)c2nc2[nH]c(-c3ccccc3)cn12 [cGMPSA‐Tris, Tris(hydroxymethyl)aminomethane RP-8-Bromo-β-phenyl-1,N2-ethenoguanosine-3′,5′-cyclicmonophosphorothiotic acid]",pH of mixture,[1]; supplement,"8,45"
same,pH at saturation solubility,"[1]; deionized H2O, quadruplicates",8.5 (±0.1)
same,solubility,"[1]; deionized H2O, quadruplicates",13.5 (±3.5) mg/mL
same,solubility,"[1]; deionized H2O, quadruplicates, listed as ‐Tris",~15 mg/mL
same,Water sorption Δm,[2]; [7],3.3%
same,Water sorption Δm,[2]; [8],5.5%
same,Water sorption Δm,"[2]; 30 % RH, sorption cycle 1 (S1)",4.9%
same,Water sorption Δm,[2]; [9],6.8%
same,Water sorption Δm,"[2]; 60 % RH, sorption cycle 1 (S1)",6.0%
same,Water sorption Δm,[2]; [10],32.4%
same,Water sorption Δm,"[2]; 95 % RH, sorption cycle 1 (S1)",32.8%
same,Observed Δm,[2],3.3%
same,Stable %RH range,[2],0–70 %RH
same,change in mass (Δm),[2],32%
same,initial early sorption Δm,[2]; consistent with 1 equivalent of H2O,~3%
same,Δm after desorption,"[2]; equilibrated value after desorption cycles, 0 % RH",3.3
O=c1c2nc(Br)n(C3OC4COP(O)(=S)OC4C3O)c2nc2[nH]c(-c3ccccc3)cn12 (stereo not shown) [cGMPSA‐TEA],solubility at 24 h,[3],51600 µg/mL
same,pH of mixture,[1]; supplement,"4,38"
same,pH at saturation solubility,"[1]; deionized H2O, quadruplicates",4.4 (±0.4)
same,solubility at 24 h,"[1]; pH 4.38, water, supplement, read-out: Aqueous solubility measurements",8900 µg/mL
same,solubility at 24 h,"[1]; pH 4.4, water, deionized H2O, quadruplicates, read-out: Solubility",8800 µg/mL
same,Water sorption Δm,[2]; [7],−1.0%
same,Water sorption Δm,[2]; [8],3.5%
same,Water sorption Δm,"[2]; 30 % RH, sorption cycle 1 (S1)",3.4%
same,Water sorption Δm,[2]; [9],4.8%
same,Water sorption Δm,"[2]; 60 % RH, sorption cycle 1 (S1)",4.0%
same,Water sorption Δm,[2]; [10],5.2%
same,Water sorption Δm,"[2]; 95 % RH, sorption cycle 1 (S1)",5.0%
same,change in mass (Δm),[2],about 5%
same,solubility,"[4]; aqueous with cosolvent or surfactant or cyclodextrin, solvent EtOH+H2O 1 : 1 v/v, solution",> 40000 µg/mL
same,solubility,"[4]; aqueous with cosolvent or surfactant or cyclodextrin, solvent MeCN+H2O 1 : 1 v/v, solution",> 40000 µg/mL
same,solubility,"[4]; aqueous with cosolvent or surfactant or cyclodextrin, solvent MeOH+H2O 1 : 1 v/v, solution",> 40000 µg/mL
same,solubility,"[4]; aqueous with cosolvent or surfactant or cyclodextrin, solvent THF+H2O 1 : 1 v/v, solution",> 40000 µg/mL
same,solubility,"[4]; organic solvent or mixture, solvent 2‐PrOH",105 µg/mL
same,solubility,"[4]; organic solvent or mixture, solvent Acetone",285 µg/mL
same,solubility,"[4]; organic solvent or mixture, solvent DMF, solution",> 40000 µg/mL
same,solubility,"[4]; organic solvent or mixture, solvent DMSO, solution",> 40000 µg/mL
same,solubility,"[4]; organic solvent or mixture, solvent Dichloromethane",30 µg/mL
same,solubility,"[4]; organic solvent or mixture, solvent Diethyl ether",3 µg/mL
same,solubility,"[4]; organic solvent or mixture, solvent Dimethoxyethane",15 µg/mL
same,solubility,"[4]; organic solvent or mixture, solvent Dioxane",30 µg/mL
same,solubility,"[4]; organic solvent or mixture, solvent EtOAc",5 µg/mL
same,solubility,"[4]; organic solvent or mixture, solvent EtOH",1610 µg/mL
same,solubility,"[4]; organic solvent or mixture, solvent EtOH+THF 1 : 1 v/v, solution",> 40000 µg/mL
same,solubility,"[4]; organic solvent or mixture, solvent MeCN",114 µg/mL
same,solubility,"[4]; organic solvent or mixture, solvent MeOH",40 µg/mL
same,solubility,"[4]; organic solvent or mixture, solvent MeTHF",10 µg/mL
same,solubility,"[4]; organic solvent or mixture, solvent THF",28 µg/mL
same,solubility,"[4]; organic solvent or mixture, solvent i‐PrOAc",10 µg/mL
same,solubility,"[4]; organic solvent or mixture, solvent n‐BuOH",210 µg/mL
same,solubility at 24 h,[5],5 µg/mL
"O=c1c2nc(Br)n([C@@H]3O[C@@H]4CO[P@@](O)(=S)O[C@H]4[C@H]3O)c2nc2[nH]c(-c3ccccc3)cn12.c1ccc(CCNCc2ccccc2)cc1 [cGMPSA‐Bnet, N-(Phenylmethyl)benzeneethanammonium RP-8-Bromo-β-phenyl-1,N2-ethenoguanosine-3′,5′-cyclicmonophosphorothioate]",pH of mixture,[1]; supplement,"7,17"
same,pH at saturation solubility,"[1]; deionized H2O, quadruplicates",7.2 (±0.04)
same,solubility,"[1]; deionized H2O, quadruplicates",0.05 (±0.03) mg/mL
same,Water sorption Δm,[2]; [7],0.7%
same,Water sorption Δm,[2]; [8],4.4%
same,Water sorption Δm,"[2]; 30 % RH, sorption cycle 1 (S1)",3.4%
same,Water sorption Δm,[2]; [9],6.1%
same,Water sorption Δm,"[2]; 60 % RH, sorption cycle 1 (S1)",5.2%
same,Water sorption Δm,[2]; [10],7.7%
same,Water sorption Δm,"[2]; 95 % RH, sorption cycle 1 (S1)",8.0%
O=c1c2nc(Br)n([C@@H]3O[C@@H]4COP(=O)([S-])O[C@H]4[C@H]3O)c2nc2[nH]c(-c3ccccc3)cn12.O=c1c2nc(Br)n([C@@H]3O[C@@H]4COP(=O)([S-])O[C@H]4[C@H]3O)c2nc2[nH]c(-c3ccccc3)cn12.[Ca+2] (stereo partly shown) [cGMPSA‐Ca],pH of mixture,[1]; supplement,"6,88"
same,pH at saturation solubility,"[1]; deionized H2O, quadruplicates",6.9 (±0.5)
same,solubility,"[1]; deionized H2O, quadruplicates",0.28 (±0.2) mg/mL
same,Water sorption Δm,[2]; [7],1.9%
same,Water sorption Δm,[2]; [8],12.4%
same,Water sorption Δm,"[2]; 30 % RH, sorption cycle 1 (S1)",5.3%
same,Water sorption Δm,[2]; [9],15.5%
same,Water sorption Δm,"[2]; 60 % RH, sorption cycle 1 (S1)",7.1%
same,Water sorption Δm,[2]; [10],22.0%
same,Water sorption Δm,"[2]; 95 % RH, sorption cycle 1 (S1)",21.9%
same,Observed Δm,[2],1.9%
same,Stable %RH range,[2],0 %RH
same,change in mass (Δm),[2],22%
same,enthalpy of decomposition,[6]; DSC,162.3 J/g
same,Onset of decomposition (DSC exotherm),"[6]; DSC 25 to 300 °C, 10 °C/min",253.2 °C
